The subject of assay [1] is TGF-β-stimulated SMAD3 phosphorylation in BEAS-2B cells. As to the kind of experiment: Cellular ALK5 potency assay, inhibition of TGF-β stimulated pSMAD3 formation in BEAS-2B cells. Conditions: Homo sapiens, pSMAD3, TGF-β 10 ng/mL, read-out: BEAS2B pIC50 (converted). The format is cell-based. In a few lines: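 Human lung epithelial BEAS-2B cells were pre-treated with compound for 1 h at 37 °C, then stimulated with TGF-β (final 10 ng/mL) for 30 min before lysis. pSMAD3 was quantified by AlphaLISA and pIC50 derived from dose-dependent signal change versus TGF-β-stimulated untreated cells.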

Assay [2] deals with T1, recombinant human ALK5 (TGF-βR1) protein (Homo sapiens, UniProt P36897).
T1 construct: purchased Life Technologies PR9075A
T1 sequence (P36897 34-503): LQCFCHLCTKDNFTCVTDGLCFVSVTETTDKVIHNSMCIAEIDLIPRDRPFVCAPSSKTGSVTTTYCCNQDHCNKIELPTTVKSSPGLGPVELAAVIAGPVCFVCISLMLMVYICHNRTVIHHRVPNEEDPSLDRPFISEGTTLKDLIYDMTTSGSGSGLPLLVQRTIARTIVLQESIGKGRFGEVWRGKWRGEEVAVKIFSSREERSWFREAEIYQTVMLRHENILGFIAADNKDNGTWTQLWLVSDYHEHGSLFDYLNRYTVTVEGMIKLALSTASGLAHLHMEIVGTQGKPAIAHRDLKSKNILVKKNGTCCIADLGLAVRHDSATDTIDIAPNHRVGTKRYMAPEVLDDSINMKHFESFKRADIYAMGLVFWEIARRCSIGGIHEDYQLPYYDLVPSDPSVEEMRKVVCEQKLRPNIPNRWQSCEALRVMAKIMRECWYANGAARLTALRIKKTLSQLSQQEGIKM
The experiment in a line: Biochemical ALK5 (TGF-βR1) assay to measure pKi (LANCE Ultra ULight kinase assay). Conditions: apparent pKi, converted from pIC50 by Cheng-Prusoff. In a few lines:
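Read-out was LANCE Ultra TR-FRET with a europium anti-phospho-Topo IIα Thr1342 antibody after EDTA quench. Kinase reaction ran 60 min at 37 °C with ATP added from a 125 μM 5× stock, after 60 min compound–enzyme equilibration at room temperature. Values are pKi from Cheng-Prusoff conversion of fitted pIC50.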
A general note: In TR-FRET formats the signal depends on donor and acceptor labels being close together.

We go through 24 compounds from patent US20230399312A1, “SUBSTITUTED PYRIMIDINES AND METHODS OF USE” (THERAVANCE BIOPHARMA R&D IP, LLC, priority 2020, published 2023).

Consider `Cc1cccc(-c2nccc(Nc3ccnc(Nc4ccc(NCC5(CO)CNC5)cc4)n3)n2)n1` [Compound 310, [3-[[4-[[4-[[2-(6-methyl-2-pyridyl)pyrimidin-4-yl]amino]pyrimidin-2-yl]amino]anilino]methyl]azetidin-3-yl] methanol], for which the IC50 in assay [1] is 25.1 to 158 nM. Moreover, the Ki in assay [2] was 0.398 to 3.16 nM.

Take `Cc1cccc(-c2nccc(Nc3ccnc(Nc4csc(NC(=O)C5(CO)CNC5)c4)n3)n2)n1` [Compound 206, 3-(hydroxymethyl)-N-[4-[[4-[[2-(6-methyl-2-pyridyl)pyrimidin-4-yl]amino]pyrimidin-2-yl]amino]-2-thienyl]azetidine-3-carboxamide]: the IC50 in assay [1] is 200 to 1260 nM. Moreover, in assay [2], the Ki was 0.0398 to 0.316 nM.

As for `COC(=O)[C@H]1CN(Cc2ccc(Nc3nccc(Nc4ccnc(-c5cccc(C)n5)n4)n3)cc2)CCN1` [Compound 268, methyl (2R)-4-[[4-[[4-[[2-(6-methyl-2-pyridyl)pyrimidin-4-yl]amino]pyrimidin-2-yl]amino]phenyl]methyl] piperazine-2-carboxylate], in assay [1], the IC50 is not above 20 nM. In addition, the Ki in assay [2] is 0.0398 to 0.316 nM.

Consider `Cc1cccc(-c2nccc(Nc3ccnc(Nc4ccc(CN5CCC[C@@H](C(=O)OCC6CNC6)C5)cc4)n3)n2)n1` [Compound 400, azetidin-3-ylmethyl (R)-1-(4-((4-((2-(6-methylpyridin-2-yl)pyrimidin-4-yl)amino)pyrimidin-2-yl)amino)benzyl)piperidine-3-carboxylate], for which the IC50 in assay [1] was 25.1 to 158 nM. Besides, the Ki in assay [2] was 0.0398 to 0.316 nM.

For `Cc1cccc(-c2nccc(Nc3ccnc(Nc4ccc5c(c4)NCCC5)n3)n2)n1` [Compound 225, N4-[2-(6-methyl-2-pyridyl)pyrimidin-4-yl]-N2-(1,2,3,4-tetrahydroquinolin-7-yl)pyrimidine-2,4-diamine], in assay [1], the IC50 was 25.1 to 158 nM. Moreover, the Ki in assay [2] was 0.0398 to 0.316 nM.

Consider `Cc1cccc(-c2nccc(Nc3ccnc(Nc4ccc(N5CCC(N6CCOCC6)CC5)cc4)n3)n2)n1` [Compound 397, N4-[2-(6-methyl-2-pyridyl)pyrimidin-4-yl]-N2-[4-(4-morpholino-1-piperidyl)phenyl]pyrimidine-2,4-diamine], for which the IC50 in assay [1] was 25.1 to 158 nM. In addition, in assay [2], the Ki is 0.0398 to 0.316 nM.

Regarding `Cc1cccc(-c2nccc(Nc3ccnc(Nc4ccc(F)c(CN5CCSCC5)c4)n3)n2)n1` [Compound 461, N2-[4-fluoro-3-(thiomorpholinomethyl)phenyl]-N4-[2-(6-methyl-2-pyridyl)pyrimidin-4-yl]pyrimidine-2,4-diamine], the IC50 in assay [1] is 25.1 to 158 nM. For the same compound, in assay [2], the Ki is 0.398 to 3.16 nM.

For `Cc1cccc(-c2nccc(Nc3ccnc(Nc4ccc(CN5CCC(C(=O)O)CC5)cc4)n3)n2)n1` [Compound 484, 1-[[4-[[4-[[2-(6-methyl-2-pyridyl)pyrimidin-4-yl]amino]pyrimidin-2-yl]amino]phenyl]methyl] piperidine-4-carboxylic acid], in assay [1], the IC50 is 200 to 1260 nM. In addition, in assay [2], the Ki is 0.0398 to 0.316 nM.

Consider `Cc1cccc(-c2nccc(Nc3ccnc(Nc4ccc(CN5CCC(C(=O)OC6CNC6)C5)cc4)n3)n2)n1` (stereo not drawn) [Compound 50, azetidin-3-yl 1-[[4-[[4-[[2-(6-methyl-2-pyridyl)pyrimidin-4-yl]amino]pyrimidin-2-yl]amino]phenyl]methyl] pyrrolidine-3-carboxylate], for which the IC50 in assay [1] is 25.1 to 158 nM. In assay [2], the Ki is 0.0398 to 0.316 nM.

As for `Cc1cccc(-c2nc(Nc3ccnc(Nc4ccc(N)cc4)n3)c3cccn3n2)n1` [Compound 1015, N2-(4-aminophenyl)-N4-[2-(6-methyl-2-pyridyl)pyrrolo[2,1-f][1,2,4]triazin-4-yl]pyrimidine-2,4-diamine], the IC50 in assay [1] was 25.1 to 158 nM. In assay [2], the Ki is 0.0398 to 0.316 nM.

As to `CC(=O)N(CC1CNC1)c1ccc(Nc2nccc(Nc3ccnc(-c4cccc(C)n4)n3)n2)cc1` [Compound 353, N-(azetidin-3-ylmethyl)-N-[4-[[4-[[2-(6-methyl-2-pyridyl)pyrimidin-4-yl]amino]pyrimidin-2-yl]amino]phenyl]acetamide], the IC50 in assay [1] was 25.1 to 158 nM. For the same compound, in assay [2], the Ki was 0.0398 to 0.316 nM.

As to `Cc1cccc(-c2nccc(Nc3ccnc(Nc4ccc(N5CCN(CC6CNC6)CC5)cc4)n3)n2)n1` [Compound 380, N2-[4-[4-(azetidin-3-ylmethyl)piperazin-1-yl]phenyl]-N4-[2-(6-methyl-2-pyridyl)pyrimidin-4-yl]pyrimidine-2,4-diamine], in assay [1], the IC50 was 25.1 to 158 nM. Also, the Ki in assay [2] was 0.0398 to 0.316 nM.

As for `CN1CCN(C2CCN(c3ccc(Nc4nccc(Nc5ccnc(-c6ccccc6F)n5)n4)cc3)CC2)CC1` [Compound 446, N4-[2-(2-fluorophenyl)pyrimidin-4-yl]-N2-[4-[4-(4-methylpiperazin-1-yl)-1-piperidyl]phenyl]pyrimidine-2,4-diamine], the IC50 in assay [1] is 25.1 to 158 nM. Further, the Ki in assay [2] is 0.398 to 3.16 nM.

`Cc1cccc(-c2nccc(Nc3ccnc(Nc4ccc(C(=O)O[C@@H]5CCCNC5)nc4)n3)n2)n1` [Compound 594, [(3R)-3-piperidyl] 5-[[4-[[2-(6-methyl-2-pyridyl)pyrimidin-4-yl]amino]pyrimidin-2-yl]amino]pyridine-2-carboxylate]: in assay [1], the IC50 is 200 to 1260 nM. The Ki in assay [2] is 0.0398 to 0.316 nM.

For `Cc1ccc(Nc2nccc(Nc3ccnc(-c4cccc(C)n4)n3)n2)cc1` [Compound 170, N4-[2-(6-methyl-2-pyridyl)pyrimidin-4-yl]-N2-(p-tolyl)pyrimidine-2,4-diamine], in assay [1], the IC50 was 25.1 to 158 nM. The Ki in assay [2] was 0.398 to 3.16 nM.

In the case of `CCC(C)OC(=O)C1CN(c2ccc(Nc3nccc(Nc4ccnc(-c5cccc(C)n5)n4)n3)cc2)CCN1` (racemic) [Compound 192, [rac-(1R)-1-methylpropyl] 4-[4-[[4-[[2-(6-methyl-2-pyridyl)pyrimidin-4-yl]amino]pyrimidin-2-yl]amino]phenyl]piperazine-2-carboxylate], in assay [1], the IC50 is 25.1 to 158 nM. Moreover, the Ki in assay [2] was 0.0398 to 0.316 nM.

`Cc1cccc(-c2nccc(Nc3ccnc(Nc4ccc(CN5C[C@@H](C)NC[C@@H]5C)cc4)n3)n2)n1` [Compound 344, N2-[4-[[(2S,5R)-2,5-dimethylpiperazin-1-yl]methyl]phenyl]-N4-[2-(6-methyl-2-pyridyl)pyrimidin-4-yl]pyrimidine-2,4-diamine]: the IC50 in assay [1] was 25.1 to 158 nM. For the same compound, in assay [2], the Ki was 0.0398 to 0.316 nM.

For the compound `Cc1cccc(-c2nccc(Nc3ccnc(Nc4ccc(NC(=O)C5CCNC5)cc4)n3)n2)n1` (stereo not drawn) [Compound 78, N-[4-[[4-[[2-(6-methyl-2-pyridyl)pyrimidin-4-yl]amino]pyrimidin-2-yl]amino]phenyl]pyrrolidine-3-carboxamide], the IC50 in assay [1] is not above 20 nM. Further, the Ki in assay [2] is 0.0398 to 0.316 nM.

On to `Cc1cccc(-c2nccc(Nc3ccnc(Nc4cnn(C5CCNC5)c4)n3)n2)n1` (stereo not drawn) [Compound 245, N4-[2-(6-methyl-2-pyridyl)pyrimidin-4-yl]-N2-(1-pyrrolidin-3-ylpyrazol-4-yl)pyrimidine-2,4-diamine], for which, in assay [1], the IC50 is 200 to 1260 nM. For the same compound, in assay [2], the Ki was 0.0398 to 0.316 nM.

In the case of `Cc1cccc(-c2nccc(Nc3ccnc(Nc4cnn(CCN)c4)n3)n2)n1` [Compound 53, N2-[1-(2-aminoethyl)pyrazol-4-yl]-N4-[2-(6-methyl-2-pyridyl)pyrimidin-4-yl]pyrimidine-2,4-diamine], in assay [1], the IC50 was 200 to 1260 nM. Moreover, in assay [2], the Ki was 0.0398 to 0.316 nM.

Turning to `COC(=O)c1cc(Nc2ccnc(Nc3ccc(N4CCN(C)CC4)cc3)n2)nc(-c2cccc(C)n2)n1` [Compound 1010, methyl 6-[[2-[4-(4-methylpiperazin-1-yl)anilino]pyrimidin-4-yl]amino]-2-(6-methyl-2-pyridyl)pyrimidine-4-carboxylate], the IC50 in assay [1] is 200 to 1260 nM. Besides, the Ki in assay [2] was 0.0398 to 0.316 nM.

With `Cc1cccc(-c2nccc(Nc3ccnc(Nc4ccc(-c5cnn(C6COC6)c5)cc4)n3)n2)n1` [Compound 538, N4-(2-(6-methylpyridin-2-yl)pyrimidin-4-yl)-N2-(4-(1-(oxetan-3-yl)-1H-pyrazol-4-yl)phenyl)pyrimidine-2,4-diamine], the IC50 in assay [1] is 25.1 to 158 nM. Besides, in assay [2], the Ki is 0.0398 to 0.316 nM.

Consider `Cc1cccc(-c2nccc(Nc3ccnc(Nc4ccc5[nH]nnc5c4)n3)n2)n1` [Compound 512, N2-(1H-benzotriazol-5-yl)-N4-[2-(6-methyl-2-pyridyl)pyrimidin-4-yl]pyrimidine-2,4-diamine], for which, in assay [1], the IC50 was 25.1 to 158 nM. For the same compound, in assay [2], the Ki was 0.398 to 3.16 nM.

As for `Cc1cccc(-c2nccc(Nc3ccnc(Nc4ccc(N5CCNCC5)c(CC(=O)O[C@@H]5CCN(C)C5)c4)n3)n2)n1` [Compound 499, [(3R)-1-methylpyrrolidin-3-yl] 2-[5-[[4-[[2-(6-methyl-2-pyridyl)pyrimidin-4-yl]amino]pyrimidin-2-yl]amino]-2-piperazin-1-yl-phenyl]acetate], the IC50 in assay [1] was 200 to 1260 nM. For the same compound, the Ki in assay [2] was 0.0398 to 0.316 nM.
